≈ marks a conversion by molar mass, not a printed value. Calls of active or inactive are those of the source. The calls are words filed in the database; no cut-off is given here.
Columns and labels:
Bacillus subtilis = assay: Antibacterial activity against Bacillus subtilis ATCC6633 assessed as inhibition of bacterial growth incubated for 18 hrs by microdilution broth assay; assay type: functional
[1] = test system: Staphylococcus epidermidis; assay: Antibacterial activity against Staphylococcus epidermidis ATCC12228 assessed as inhibition of bacterial growth incubated for 18 hrs by microdilution broth assay; assay type: functional
Enterococcus faecalis [2] = assay: Antibacterial activity against Enterococcus faecalis ATCC29212 assessed as inhibition of bacterial growth incubated for 18 hrs by microdilution broth assay; assay type: functional
Staphylococcus aureus [3] = assay: Antibacterial activity against Staphylococcus aureus ATCC25923 assessed as inhibition of bacterial growth incubated for 18 hrs by microdilution broth assay; assay type: functional
[4] = Cytotoxicity against African green monkey Vero cells incubated for 48 hrs by MTT assay; assay type: toxicity, cell-based, Chlorocebus sabaeus
[5] = test system: Mycobacterium tuberculosis; assay: Antibacterial activity against Mycobacterium tuberculosis H37Rv assessed as inhibition of bacterial growth incubated for 7 days by alamar blue assay; assay type: functional; conditions: 168 h, time 7 day
Enterococcus = assay: Antibacterial activity against vancomycin resistant Enterococcus clinical isolate 20-1 assessed as inhibition of bacterial growth incubated for 7 days by alamar blue assay; assay type: functional; conditions: clinical isolate 20-1, 168 h, time 7 day
Staphylococcus aureus [6] = assay: Antibacterial activity against Linezolid resistant Staphylococcus aureus clinical isolate 20-2 assessed as inhibition of bacterial growth incubated for 7 days by alamar blue assay; assay type: functional; conditions: clinical isolate 20-2, 168 h, time 7 day
[7] = test system: Staphylococcus epidermidis; assay: Antibacterial activity against methicillin resistant Staphylococcus epidermidis clinical isolate 20-2 assessed as inhibition of bacterial growth incubated for 7 days by alamar blue assay; assay type: functional; conditions: clinical isolate 20-2, 168 h, time 7 day
Staphylococcus aureus [8] = assay: Antibacterial activity against Linezolid resistant Staphylococcus aureus clinical isolate 20-1 assessed as inhibition of bacterial growth incubated for 7 days by alamar blue assay; assay type: functional; conditions: clinical isolate 20-1, 168 h, time 7 day
Staphylococcus aureus [9] = assay: Antibacterial activity against methicillin resistant Staphylococcus aureus clinical isolate 20-1 assessed as inhibition of bacterial growth incubated for 7 days by alamar blue assay; assay type: functional; conditions: clinical isolate 20-1, 168 h, time 7 day
Staphylococcus aureus [10] = assay: Antibacterial activity against vancomycin intermediate Staphylococcus aureus ATCC700699 assessed as inhibition of bacterial growth incubated for 7 days by alamar blue assay; assay type: functional; conditions: ATCC700699, 168 h, time 7 day
Staphylococcus aureus [11] = assay: Antibacterial activity against methicillin resistant Staphylococcus aureus clinical isolate 20-2 assessed as inhibition of bacterial growth incubated for 7 days by alamar blue assay; assay type: functional; conditions: clinical isolate 20-2, 168 h, time 7 day
Enterococcus faecalis [12] = assay: Antibacterial activity against Linezolid resistant Enterococcus faecalis clinical isolate 20-2 assessed as inhibition of bacterial growth incubated for 7 days by alamar blue assay; assay type: functional; conditions: clinical isolate 20-2, 168 h, time 7 day
Enterococcus faecalis [13] = assay: Antibacterial activity against Linezolid resistant Enterococcus faecalis clinical isolate 20-1 assessed as inhibition of bacterial growth incubated for 7 days by alamar blue assay; assay type: functional; conditions: clinical isolate 20-1, 168 h, time 7 day
[14] = test system: Staphylococcus epidermidis; assay: Antibacterial activity against methicillin resistant Staphylococcus epidermidis clinical isolate 20-1 assessed as inhibition of bacterial growth incubated for 7 days by alamar blue assay; assay type: functional; conditions: clinical isolate 20-1, 168 h, time 7 day
[15] = Metabolic stability in human liver microsomes assessed as compound remaining at 10 uM incubated for 60 mins in absence of NADPH by LC-MS/MS analysis; assay type: ADME, Microsome; conditions: read-out: Stability
[16] = Metabolic stability in ICR mouse liver microsomes assessed as substrate remaining at 10 uM incubated for 60 mins in presence of NADPH by LC-MS/MS analysis; assay type: ADME, Microsome; conditions: read-out: Stability
[17] = Metabolic stability in ICR mouse liver microsomes assessed as compound remaining at 10 uM incubated for 60 mins in absence of NADPH by LC-MS/MS analysis; assay type: ADME, Microsome; conditions: read-out: Stability
[18] = Metabolic stability in human liver microsomes assessed as substrate remaining at 10 uM incubated for 60 mins in presence of NADPH by LC-MS/MS analysis; assay type: ADME, Microsome; conditions: read-out: Stability
Cell membrane = assay: Disruption of cell membrane in methicillin resistant Staphylococcus aureus ATCC 33592 assessed as cell lysis at MIC incubated for 6 hrs by Scanning electron microscopic analysis; assay type: cell membranes

Structure (SMILES) | MIC (Bacillus subtilis) | MIC [1] | MIC (Enterococcus faecalis [2]) | MIC (Staphylococcus aureus [3]) | IC50 at 48 h [4] | MIC [5] | other results
N#Cc1ccc(-c2c(F)cc3c(c2F)CN2C(=O)O[C@@H](CN)[C@@H]2O3)cc1 | 32 µg/mL (≈ 89.6 µM) | 32 µg/mL (≈ 89.6 µM) | > 64 µg/mL | 64 µg/mL (≈ 179 µM) | 8 µg/mL (≈ 22.4 µM) | 0.99 µg/mL (≈ 2.77 µM) | –
CC(=O)NC[C@@H]1OC(=O)N2Cc3c(cc(F)c(-c4ccc(C#N)cc4)c3F)O[C@@H]12 | 0.032 µg/mL (≈ 0.0801 µM) | 1 µg/mL (≈ 2.5 µM) | 0.25 µg/mL (≈ 0.626 µM) | 2 µg/mL (≈ 5.01 µM) | – | 3.41 µg/mL (≈ 8.54 µM) | –
CC(=O)NC[C@@H]1OC(=O)N2Cc3c(cc(F)c(-c4ccc(C#N)nc4)c3F)O[C@@H]12 | 0.032 µg/mL (≈ 0.0799 µM) | 0.125 µg/mL (≈ 0.312 µM) | 0.5 µg/mL (≈ 1.25 µM) | 1 µg/mL (≈ 2.5 µM) | > 64 µg/mL | 0.97 µg/mL (≈ 2.42 µM) | MIC (Enterococcus): 1 µg/mL (≈ 2.5 µM); MIC (Staphylococcus aureus [6]): 8 µg/mL (≈ 20 µM); MIC [7]: 0.5 µg/mL (≈ 1.25 µM); MIC (Staphylococcus aureus [8]): 8 µg/mL (≈ 20 µM); MIC (Staphylococcus aureus [9]): 1 µg/mL (≈ 2.5 µM); MIC (Staphylococcus aureus [10]): 1 µg/mL (≈ 2.5 µM); MIC (Staphylococcus aureus [11]): 1 µg/mL (≈ 2.5 µM); MIC (Enterococcus faecalis [12]): 2 µg/mL (≈ 5 µM); MIC (Enterococcus faecalis [13]): 2 µg/mL (≈ 5 µM); MIC [14]: 0.5 µg/mL (≈ 1.25 µM)
COC(=O)NC[C@@H]1OC(=O)N2Cc3cc(-c4ccc(-c5nnn(C)n5)nc4)c(F)cc3O[C@@H]12 | 0.125 µg/mL (≈ 0.274 µM) | 0.125 µg/mL (≈ 0.274 µM) | 0.5 µg/mL (≈ 1.1 µM) | 4 µg/mL (≈ 8.78 µM) | 37 µg/mL (≈ 81.2 µM) | 0.49 µg/mL (≈ 1.08 µM) | MIC (Enterococcus): 0.5 µg/mL (≈ 1.1 µM); MIC (Staphylococcus aureus [6]): 8 µg/mL (≈ 17.6 µM); remaining at 1 h, 10 µM [15]: 120%; MIC [7]: 0.125 µg/mL (≈ 0.274 µM); MIC (Staphylococcus aureus [8]): 8 µg/mL (≈ 17.6 µM); MIC (Staphylococcus aureus [9]): 0.25 µg/mL (≈ 0.549 µM); remaining at 1 h, 10 µM [16]: 102%; MIC (Staphylococcus aureus [10]): 0.5 µg/mL (≈ 1.1 µM); MIC (Staphylococcus aureus [11]): 0.25 µg/mL (≈ 0.549 µM); MIC (Enterococcus faecalis [12]): 1 µg/mL (≈ 2.2 µM); MIC (Enterococcus faecalis [13]): 1 µg/mL (≈ 2.2 µM); MIC [14]: 0.125 µg/mL (≈ 0.274 µM); remaining at 1 h, 10 µM [17]: 104%; remaining at 1 h, 10 µM [18]: 110%
CC(=O)NC[C@@H]1OC(=O)N2Cc3cc(-c4ccc(C(F)(F)F)nc4)c(F)cc3O[C@@H]12 | 1 µg/mL (≈ 2.35 µM) | 0.5 µg/mL (≈ 1.18 µM) | 1 µg/mL (≈ 2.35 µM) | 32 µg/mL (≈ 75.2 µM) | – | 6.7 µg/mL (≈ 15.8 µM) | –
CCCCCCCCCC(=O)N[C@@H](Cc1c[nH]c2ccccc12)C(=O)N[C@H](CC(N)=O)C(=O)N[C@@H](CC(=O)O)C(=O)N[C@@H]1C(=O)NCC(=O)N[C@@H](CCCN)C(=O)N[C@@H](CC(=O)O)C(=O)N[C@H](C)C(=O)N[C@@H](CC(=O)O)C(=O)NCC(=O)N[C@H](CO)C(=O)N[C@@H]([C@H](C)CC(=O)O)C(=O)N[C@@H](CC(=O)c2ccccc2N)C(=O)O[C@@H]1C | – | – | – | – | – | – | Activity (Cell membrane): Active
CC(=O)NC[C@@H]1OC(=O)N2Cc3cc(-c4ccc(C(C)=O)cc4)c(F)cc3O[C@@H]12 | 0.5 µg/mL (≈ 1.26 µM) | 2 µg/mL (≈ 5.02 µM) | 1 µg/mL (≈ 2.51 µM) | 8 µg/mL (≈ 20.1 µM) | 49 µg/mL (≈ 123 µM) | 0.74 µg/mL (≈ 1.86 µM) | –
COc1ccc(-c2c(F)cc3c(c2F)CN2C(=O)O[C@@H](CNC(C)=O)[C@@H]2O3)cn1 | 0.032 µg/mL (≈ 0.0789 µM) | 0.5 µg/mL (≈ 1.23 µM) | 0.5 µg/mL (≈ 1.23 µM) | 8 µg/mL (≈ 19.7 µM) | – | 6.75 µg/mL (≈ 16.7 µM) | –
COC(=O)NC[C@@H]1OC(=O)N2Cc3cc(-c4ccc(C#N)nc4)c(F)cc3O[C@@H]12 | 0.125 µg/mL (≈ 0.314 µM) | 0.25 µg/mL (≈ 0.628 µM) | 0.5 µg/mL (≈ 1.26 µM) | 8 µg/mL (≈ 20.1 µM) | 33 µg/mL (≈ 82.8 µM) | 0.97 µg/mL (≈ 2.44 µM) | MIC (Enterococcus): 1 µg/mL (≈ 2.51 µM); MIC (Staphylococcus aureus [6]): 16 µg/mL (≈ 40.2 µM); remaining at 1 h, 10 µM [15]: 114%; MIC [7]: 0.25 µg/mL (≈ 0.628 µM); MIC (Staphylococcus aureus [8]): 16 µg/mL (≈ 40.2 µM); MIC (Staphylococcus aureus [9]): 0.5 µg/mL (≈ 1.26 µM); remaining at 1 h, 10 µM [16]: 116%; MIC (Staphylococcus aureus [10]): 1 µg/mL (≈ 2.51 µM); MIC (Staphylococcus aureus [11]): 0.5 µg/mL (≈ 1.26 µM); MIC (Enterococcus faecalis [12]): 4 µg/mL (≈ 10 µM); MIC (Enterococcus faecalis [13]): 4 µg/mL (≈ 10 µM); MIC [14]: 0.25 µg/mL (≈ 0.628 µM); remaining at 1 h, 10 µM [17]: 113%; remaining at 1 h, 10 µM [18]: 103%
COc1ccc(-c2c(F)cc3c(c2F)CN2C(=O)O[C@@H](CN)[C@@H]2O3)cn1 | 64 µg/mL (≈ 176 µM) | 64 µg/mL (≈ 176 µM) | > 64 µg/mL | 64 µg/mL (≈ 176 µM) | – | 1.82 µg/mL (≈ 5.01 µM) | –
CC(=O)NC[C@H]1OC(=O)N2Cc3c(cc(F)c(-c4ccc(C#N)nc4)c3F)O[C@H]12 | > 64 µg/mL | > 64 µg/mL | > 64 µg/mL | > 64 µg/mL | – | > 32 µg/mL | –
CC(=O)NC[C@@H]1OC(=O)N2Cc3cc(-c4ccn5ncnc5c4)c(F)cc3O[C@@H]12 | 0.5 µg/mL (≈ 1.26 µM) | 2 µg/mL (≈ 5.03 µM) | 0.5 µg/mL (≈ 1.26 µM) | 8 µg/mL (≈ 20.1 µM) | > 64 µg/mL | 1.43 µg/mL (≈ 3.6 µM) | –
COC(=O)NC[C@@H]1OC(=O)N2Cc3cc(-c4ccc(C(C)=O)cc4)c(F)cc3O[C@@H]12 | 0.125 µg/mL (≈ 0.302 µM) | 0.5 µg/mL (≈ 1.21 µM) | 0.5 µg/mL (≈ 1.21 µM) | > 64 µg/mL | – | 1.74 µg/mL (≈ 4.2 µM) | –

From ChEMBL document CHEMBL5608235, “Tricyclic Benzo[1,3]oxazinyloxazolidinones as Potent Antibacterial Agents against Drug-Resistant Pathogens” (J Med Chem, 2024)
